Reference: patent US20240216401A1, “COMBINATION THERAPY BY USING AKR1C3-ACTIVATED COMPOUND WITH IMMUNE CHECKPOINT INHIBITOR” (OBI Pharma, Inc., priority 2021, published 2024)
“And” between values parts separate entries of the source, which are not always exact repeats. Equal entries are not always repeated.

System: T helper (TH) cells (CD45^+CD4^+ T cells) in tumor-infiltrating lymphocytes
Assay: Example 2: flow cytometry, percentage of TH cells in TILs
Assay type: in vivo, Mus musculus
Protocol: Mice were sacrificed by CO2 euthanasia at the end of the study duration, and the connective tissue around tumor was resected. The tumor samples were then weighed and cut equally into three sections if the tumor weight over 400 mg. The tumor tissue was prepared for the isolation of tumor-infiltrating lymphocytes (TILs). The rest of one section was fixed in 10% formaldehyde and embedded in paraffin; the other was stored at a temperature below −70° C.
The tumor samples were dissected into smaller fragments using scalpels and then digested with a cocktail of collagenase, DNase I, and Hyaluronidase (Collagenase #C5138, DNase I #D5025, Hyaluronidase #H6254, SigmaAldrich) for at least 2 hours.
Cells were stained with the fluorescently conjugated surface antibodies and incubated for 30 minutes at 4° C., and then resuspended in staining buffer for flow cytometric analysis. Flow cytometry was done using a Navios EX Flow Cytometer (Beckman Coulter). Data were analyzed using the Kaluza Analysis Software (Beckman Coulter).

[1] = G2: OBI-3424 (0.3 mg/kg), individual animals, 0.3 mg/kg
[2] = G3: OBI-3424 (1 mg/kg), group Mean
[3] = G3: OBI-3424 (1 mg/kg), individual animals, 1 mg/kg

C[C@H](OP(=O)(N1CC1)N1CC1)c1ccc([N+](=O)[O-])c(Oc2cccc(C(=O)N(C)C)c2)c1 [OBI-3424, (S)-1-(3-(3-N,N-dimethylaminocarbonyl)phenoxyl-4-mtrophenyl)-1-ethyl-N,N′-bis(ethylene)phosphoramidate]
CD25^+ TH cells (CD45^+CD4^+CD25^+) TH Gated % [1]: 18.38% and 17.49% and 18.21% and 10.15% and 30.45% and 14.61%
CD69^+ TH cells (CD45^+CD4^+CD69^+) Cell count (×10^5) [1]: 14.86 ×10^5 and 13.89 ×10^5 and 28.08 ×10^5 and 3.35 ×10^5 and 16.93 ×10^5 and 6.24 ×10^5
CD69^+ TH cells (CD45^+CD4^+CD69^+) TH Gated % [1]: 63.07% and 71.55% and 57.32% and 49.45% and 44.32%
CD69^+ TH cells (CD45^+CD4^+CD69^+) Total % [1]: 7.64% and 6.79% and 5.20% and 15.65% and 6.87% and 8.60%
Foxp3^+ Treg cells (CD45^+CD4^+CD25^+Foxp3^+) Cell count (×10^5) [1]: 0.21 ×10^5 and 0.27 ×10^5 and 0.43 ×10^5 and 0.03 ×10^5 and 0.39 ×10^5 and 0.08 ×10^5
Foxp3^+ Treg cells (CD45^+CD4^+CD25^+Foxp3^+) TH Gated % [1]: 5.03% and 7.95% and 5.08% and 6.05% and 3.69% and 3.81%
Foxp3^+ Treg cells (CD45^+CD4^+CD25^+Foxp3^+) Total % [1]: 0.11% (2×) and 0.13% (2×) and 0.08% and 0.16%
PD-1^+ TH cells (CD45^+CD4^+ PD-1^+) Cell count (×10^5) [1]: 21.12 ×10^5 and 16.11 ×10^5 and 38.56 ×10^5 and 4.30 ×10^5 and 32.19 ×10^5 and 9.90 ×10^5
PD-1^+ TH cells (CD45^+CD4^+ PD-1^+) TH Gated % [1]: 98.48% and 81.16% and 94.89% and 90.86% and 99.60% and 98.76%
PD-1^+ TH cells (CD45^+CD4^+ PD-1^+) Total % [1]: 10.86% and 7.88% and 7.14% and 20.09% and 13.06% and 13.65%
TH cells (CD45^+CD4^+) CD45^+ Gated % [1]: 59.01% and 26.17% and 17.42% and 32.52% and 29.44% and 36.50%
TH cells (CD45^+CD4^+) Cell count (×10^5) [1]: 21.45 ×10^5 and 19.84 ×10^5 and 40.61 ×10^5 and 4.73 ×10^5 and 32.34 ×10^5 and 10.02 ×10^5
TH cells (CD45^+CD4^+) Total % [1]: 11.03% and 9.70% and 7.52% and 22.11% and 13.12% and 13.82%
CD25^+ TH cells (CD45^+CD4^+ CD25^+) Total % [2]: 3.32%
CD25^+ TH cells (CD45^+CD4^+CD25^+) Cell count (×10^5) [2]: 2.83 ×10^5
CD25^+ TH cells (CD45^+CD4^+CD25^+) TH Gated % [2]: 13.39%
CD69^+ TH cells (CD45^+CD4^+CD69^+) Cell count (×10^5) [2]: 12.24 ×10^5
CD69^+ TH cells (CD45^+CD4^+CD69^+) TH Gated % [2]: 61.30%
CD69^+ TH cells (CD45^+CD4^+CD69^+) Total % [2]: 15.55%
Foxp3^+ Treg cells (CD45^+CD4^+CD25^+Foxp3^+) Cell count (×10^5) [2]: 0.07 ×10^5
Foxp3^+ Treg cells (CD45^+CD4^+CD25^+Foxp3^+) TH Gated % [2]: 3.04%
Foxp3^+ Treg cells (CD45^+CD4^+CD25^+Foxp3^+) Total % [2]: 0.09%
PD-1^+ TH cells (CD45^+CD4^+ PD-1^+) Cell count (×10^5) [2]: 19.54 ×10^5
PD-1^+ TH cells (CD45^+CD4^+ PD-1^+) TH Gated % [2]: 97.01%
PD-1^+ TH cells (CD45^+CD4^+ PD-1^+) Total % [2]: 24.35%
TH cells (CD45^+CD4^+) CD45^+ Gated % [2]: 41.85%
TH cells (CD45^+CD4^+) Cell count (×10^5) [2]: 20.13 ×10^5
TH cells (CD45^+CD4^+) Total % [2]: 25.05%
CD25^+ TH cells (CD45^+CD4^+ CD25^+) Total % [3]: 1.46% and 2.88% and 2.69% and 5.06% and 4.55% and 3.26%
CD25^+ TH cells (CD45^+CD4^+CD25^+) Cell count (×10^5) [3]: 0.42 ×10^5 and 3.63 ×10^5 and 1.90 ×10^5 and 5.00 ×10^5 and 3.39 ×10^5 and 2.64 ×10^5
CD25^+ TH cells (CD45^+CD4^+CD25^+) TH Gated % [3]: 5.51% and 11.47% and 14.05% and 20.81% and 18.53% and 9.97%
CD69^+ TH cells (CD45^+CD4^+CD69^+) Cell count (×10^5) [3]: 4.74 ×10^5 and 19.21 ×10^5 and 9.19 ×10^5 and 10.91 ×10^5 and 12.59 ×10^5 and 16.82 ×10^5
CD69^+ TH cells (CD45^+CD4^+CD69^+) TH Gated % [3]: 61.50% and 60.62% and 67.91% and 45.46% and 68.87% and 63.43%
CD69^+ TH cells (CD45^+CD4^+CD69^+) Total % [3]: 16.35% and 15.22% and 13.01% and 11.04% and 16.92% and 20.76%
Foxp3^+ Treg cells (CD45^+CD4^+CD25^+Foxp3^+) Cell count (×10^5) [3]: 0.02 ×10^5 and 0.08 ×10^5 and 0.07 ×10^5 and 0.12 ×10^5 and 0.04 ×10^5 and 0.11 ×10^5
Foxp3^+ Treg cells (CD45^+CD4^+CD25^+Foxp3^+) TH Gated % [3]: 4.64% and 2.22% and 3.57% and 2.45% and 1.41% and 3.92%
Foxp3^+ Treg cells (CD45^+CD4^+CD25^+Foxp3^+) Total % [3]: 0.07% and 0.06% (2×) and 0.10% and 0.12% and 0.13%
PD-1^+ TH cells (CD45^+CD4^+ PD-1^+) Cell count (×10^5) [3]: 7.02 ×10^5 and 29.44 ×10^5 and 11.76 ×10^5 and 23.76 ×10^5 and 18.24 ×10^5 and 27.01 ×10^5
PD-1^+ TH cells (CD45^+CD4^+ PD-1^+) TH Gated % [3]: 96.86% and 94.38% and 95.57% and 98.57% and 97.07% and 99.62%
PD-1^+ TH cells (CD45^+CD4^+ PD-1^+) Total % [3]: 24.22% and 23.33% and 16.66% and 24.05% and 24.52% and 33.34%
TH cells (CD45^+CD4^+) CD45^+ Gated % [3]: 37.76% and 41.33% and 35.50% and 40.55% and 38.34% and 57.62%
TH cells (CD45^+CD4^+) Cell count (×10^5) [3]: 7.25 ×10^5 and 31.20 ×10^5 and 12.31 ×10^5 and 24.11 ×10^5 and 18.79 ×10^5 and 27.11 ×10^5
TH cells (CD45^+CD4^+) Total % [3]: 25.00% and 24.72% and 17.44% and 24.40% and 25.26% and 33.47%
